Laboratory results taken from patent US20230295163A1, “TETRACYCLIC DERIVATIVE, METHOD FOR PREPARING SAME AND USE THEREOF IN MEDICINE” (ZHEJIANG HISUN PHARMACEUTICAL CO., LTD., priority 2020, published 2023).

Assays:
[1] = system: p-ERK1/2 in NCI-H358 cells; assay: Inhibition of p-ERK1/2 in NCI-H358 cells (HTRF kit); assay type: cell-based; conditions: Homo sapiens, hEGF 5 nM stimulation, read-out: IC50 inhibiting p-ERK1/2 in NCI-H358 cells
Text: The following method was used to determine the inhibitory activity of the compounds of the present disclosure on p-ERK1/2 in NCI-H358 cells. In this method, Advanced phospho-ERK1/2 (Thr202/tyr204) kit (Cat. No. 64AERPEH) from Cisbio company was used, and the detailed experimental operation can be referred to the kit instruction. NCI-H358 cells (containing KRAS G12C mutation) were purchased from the Cell Resource Center, Shanghai Institutes for Biology Sciences, Chinese Academy of Sciences.
The experimental procedure is briefly described as follows: NCI-H358 cells were cultured in RPMIH 1640 complete medium containing 10% fetal bovine serum, 100 U penicillin, 100 μg/mL streptomycin and 1 mM sodium pyruvate. […] The 96-well plate was placed on ice for half an hour of lysis, and then the lysate was detected according to the instruction of the Advanced phospho-ERK1/2 (Thr202/tyr204) kit. Finally, the fluorescence intensity of each well at emission wavelengths of 620 nm and 665 nM was measured on a microplate reader in TF-FRET mode at an excitation wavelength of 304 nm, and the ratio of the fluorescence intensity of each well at 665/620 was calculated. The percentage of inhibition rate of the test compounds at each concentration was calculated by comparing with the fluorescence intensity of the control group (0.1% DMSO). […]

[2] = target: T1, recombinant human KRAS G12C protein (Homo sapiens, UniProt P01116, G12C); assay: Covalent binding ability to KRAS G12C protein (LC-MS); conditions: 3 μM, 5 min
T1 construct: The recombinant human KRAS G12C protein (aa1-169)
T1 sequence (P01116 1-169 isoform P01116-2 G12C): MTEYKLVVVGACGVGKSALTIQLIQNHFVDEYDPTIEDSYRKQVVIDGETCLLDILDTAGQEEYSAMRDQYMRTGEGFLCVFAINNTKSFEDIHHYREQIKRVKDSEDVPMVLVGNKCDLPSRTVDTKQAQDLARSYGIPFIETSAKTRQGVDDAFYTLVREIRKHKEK
Protocol: The following method was used to determine the covalent binding ability of the compounds of the present disclosure to recombinant human KRAS G12C protein under in vitro conditions.
The experimental procedure is briefly described as follows: The recombinant human KRAS G12C protein (aa1-169) was prepared with a reaction buffer (20 mM HEPES, 150 mM NaCl, 1 mM MgCl2, 1 mM DTT) at a concentration of 4 μM for later use. The test compound was prepared with DMSO into a 10 mM stock solution, which was then diluted with the reaction buffer for later use. First, 1.5 μL of the test compound diluted with the reaction buffer was added to each well (a final concentration of the reaction system was […]), then added with 23.5 μL of the reaction buffer, mixed well, then added with 25 μL of 4 μM recombinant human KRAS G12C protein for 5 min of incubation at room temperature, and added with 5 μL of acetic acid to stop the reaction. The samples were transferred to injection vials. The ratios of covalent binding between the test compounds and KRAS G12C protein were detected by Agilent 1290/6530 instrument, and the samples were analyzed in a liquid chromatography column (XBridge Protein BEH C4, 300 Å, 3.5 μm, 2.1 mm×50 mm). In the detection process, mobile phase A was 0.1% formic acid aqueous solution, mobile phase B was acetonitrile, the mobile phase elution program was as follows: mobile phase A was kept at 95% at 0-0.5 min, changed to 30% at 2.5 min for 0.5 min, and changed to 95% at 3.1 min for 1.9 min; and flow rate was 0.5 mL/min. Finally, the data was analyzed by MassHunter Workstation Software Bioconfirm Version B.08.00 to obtain the covalent binding rate between the test compound at a concentration of 3 μM and KRAS G12C protein under 5 min of incubation.

With `C=CC(=O)N1C[C@@H]2C(=O)N(C)c3c(c4cc(Cl)c(-c5c(O)cccc5F)nc4n(-c4c(SC)ccnc4C(C)C)c3=O)N2C[C@H]1C` (single isomer, unassigned) [Compound 17] the IC50 [1] was 83.4 nM and the “Covalent binding rate (%)” value [2] was 63.4%.
